Experimental data: paper PMC6630214, “Design, Synthesis and Biological Evaluation of 7-Chloro-9H-pyrimido[4,5-b]indole-based Glycogen Synthase Kinase-3β Inhibitors” (Molecules, 2019)

Legend:
[1] = Metabolic stability in human liver microsomes (HLM); type: in vitro ADME; details: after an incubation time of 120 min, substrate 100 µM
Procedure: In a HLM stability assay, 14b and 24 were intensively degraded during a timeframe of 120 min (25% and 8% remaining parent compound at the endpoint of the experiment, respectively; for details see Tables S3 and S4 as well as Figures S4 and S5, Supplementary Materials). The corresponding unsubstituted piperidines were observed as prominent metabolites.
Metabolism in Human Liver Microsomes (HLM) of Compounds 14b and 24
Microsomes from liver, pooled from human (male and female) (Lot: SLBQ7487V) were purchased from Merck (Schnelldorf, Germany). The substrate (compounds 14b and 24, respectively) (100 µM), an NADPH-regenerating syst em (5 mM Glucose-6-phosphate, 5 U/mL Glucose -6-phosphate dehydrogenase and 1 mM NADP +) and 4 mM MgCl2⋅6 H2O in 0.1 M Tris buffer (pH 7.4) were preincubated for 5 min at 37°C and 750 rpm on a shaker. The reaction was started by the addition of HLM and then split into aliquots (50 µL). The reaction was quenched at […] time points (0, 10, 20, 30, 60 and 120 min) by addition of 100 µL internal standard (30 µM in MeCN). The samples were vortexed for 30 s and centrifuged (19,800 relative centrifugal force/4°C/10 min). The supernatant was directly used for LC-MS analysis (see below). All incubations were conducted in triplicates. […]
The metabolite formation was analyzed with an Alliance 2695 Separations Module (Waters GmbH, Eschborn). […]

GSK-3β = GSK-3β (Homo sapiens, UniProt P49841); assay: ADP Glo GSK-3β kinase assay; type: biochemical; details: for IC50 / GSK-3β inhibition (in words): ADP Glo kinase assay; for IC50: n = 2 (14b n = 5, 24 n = 3), read-out: IC50 (µM) Mean ± SEM GSK-3β; for GSK-3β inhibition (in words): hit 1 from kinome-wide screening
Procedure: To extend the biological profile of this novel class of 7-chloro-9H-pyrimido[4,5-b]indole-based GSK-3β inhibitors, we tested the lead compound 14b for its ATP competition in our ADP Glo assay system.
ATP Binding Competition of Compound 14b
Compound 14b was analyzed for its competition with ATP in an ADP Glo GSK-3β assay. To
this end, a dilution series of 14b was incubated with 25 µM, 100 µM and 500 µM of ATP and
corresponding IC50 values were determined. Results and inhibition curves are listed in
Table S1. IC50 values for compound 14b in the ATP binding competition experiment.
ATP concentration [µM] GSK-3β
a IC50 values were determined in an ADP Glo kinase assay , n = 1; b n = 5.
Figure S3. Inhibition curves of compound 14b in the presence of 100 µM and 500 µM ATP.
(1 picture or pasted object on this page, not shown here)

JAK3 = target: T1, JAK3 (Homo sapiens, UniProt P52333); assay: JAK3 enzyme-linked immunosorbent assay (ELISA); type: biochemical
T1 sequence (P52333 1-1124): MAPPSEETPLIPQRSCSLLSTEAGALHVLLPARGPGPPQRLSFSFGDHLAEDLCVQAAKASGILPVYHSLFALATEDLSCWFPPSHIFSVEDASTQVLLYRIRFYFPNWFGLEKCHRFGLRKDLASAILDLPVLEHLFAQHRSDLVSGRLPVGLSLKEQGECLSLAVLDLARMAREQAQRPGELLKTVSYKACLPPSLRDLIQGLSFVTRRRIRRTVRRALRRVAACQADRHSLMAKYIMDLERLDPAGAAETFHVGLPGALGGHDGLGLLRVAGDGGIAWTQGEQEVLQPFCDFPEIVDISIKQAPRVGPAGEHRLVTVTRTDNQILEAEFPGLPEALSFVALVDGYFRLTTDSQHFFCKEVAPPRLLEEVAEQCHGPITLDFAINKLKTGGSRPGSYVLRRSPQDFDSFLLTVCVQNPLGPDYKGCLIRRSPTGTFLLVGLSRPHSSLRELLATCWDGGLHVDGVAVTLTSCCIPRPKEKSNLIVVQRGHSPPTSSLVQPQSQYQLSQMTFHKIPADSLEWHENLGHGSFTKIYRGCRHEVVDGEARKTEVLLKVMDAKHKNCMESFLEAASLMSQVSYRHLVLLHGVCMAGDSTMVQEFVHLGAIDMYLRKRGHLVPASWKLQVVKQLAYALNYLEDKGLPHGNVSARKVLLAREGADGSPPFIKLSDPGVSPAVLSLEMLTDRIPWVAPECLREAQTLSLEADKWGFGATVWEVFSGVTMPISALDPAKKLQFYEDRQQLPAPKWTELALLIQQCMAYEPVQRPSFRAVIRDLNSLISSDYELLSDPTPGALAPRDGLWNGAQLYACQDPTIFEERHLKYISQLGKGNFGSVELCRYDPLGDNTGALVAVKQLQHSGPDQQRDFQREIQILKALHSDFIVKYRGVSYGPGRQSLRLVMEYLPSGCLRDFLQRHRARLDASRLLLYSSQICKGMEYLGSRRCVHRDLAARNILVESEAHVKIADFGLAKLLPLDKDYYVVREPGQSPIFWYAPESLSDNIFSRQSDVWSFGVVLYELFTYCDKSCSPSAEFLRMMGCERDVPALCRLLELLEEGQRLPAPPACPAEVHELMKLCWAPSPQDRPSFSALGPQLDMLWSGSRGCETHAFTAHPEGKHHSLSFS
Procedure: Furthermore, 14b and 24 were examined for their inhibitory activity on the possible off-target JAK3, as this class of GSK-3β inhibitors is derived from the pan-JAK inhibitor tofacitinib.
JAK3 Inhibition by Compounds 14b and 24
Compound 14b and 24 were analyzed for their inhibitory activity on JAK3 in an enzyme -
linked immunosorbent assay (ELISA). Single point measurements at compound
concentrations of 5 µM were conducted .
Table S2. JAK3 inhibition of 14b and 24 in the ELISA.
Cpd. JAK3 inhibition [%] a […]

Sequence of GSK-3β (P49841 whole entry): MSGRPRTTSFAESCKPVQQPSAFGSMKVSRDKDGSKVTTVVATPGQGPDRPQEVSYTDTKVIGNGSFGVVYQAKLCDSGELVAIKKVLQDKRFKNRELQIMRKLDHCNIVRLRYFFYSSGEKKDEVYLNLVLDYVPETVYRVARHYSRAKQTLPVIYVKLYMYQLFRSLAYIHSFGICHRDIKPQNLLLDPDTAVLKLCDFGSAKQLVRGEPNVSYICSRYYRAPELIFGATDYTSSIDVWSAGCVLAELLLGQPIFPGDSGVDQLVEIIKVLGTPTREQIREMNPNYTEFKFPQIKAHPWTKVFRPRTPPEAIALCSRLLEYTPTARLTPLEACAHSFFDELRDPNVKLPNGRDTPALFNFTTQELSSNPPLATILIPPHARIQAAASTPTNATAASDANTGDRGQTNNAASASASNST

## N#CCCN1CC[C@@H]2CCN(c3ncnc4[nH]c5cc(Cl)ccc5c34)[C@@H]2C1 (racemic) [Compound 24, 3-(3aRS,7aSR)-(1-(7-Chloro-9H-pyrimido[4,5-b]indol-4-yl)octahydro-6H-pyrrolo[2,3-c]pyridin-6-yl)-propanenitrile]
[1]
  Metabolic stability [%], remaining parent compound: 8%
GSK-3β
  IC50: 0.13 ± 0.008 µM
GSK-3β; compared to unrigidized counterpart 14b
  increase in potency on GSK-3β: 6 fold
JAK3; ELISA
  inhibition of JAK3 (in words): no significant inhibition
JAK3; single point measurements at compound concentrations of 5 µM, n = 3
  inhibition at 5 µM: 31.8 ± 3.8%

## C[C@@H]1CCN(C(=O)CC#N)C[C@@H]1N(C)c1ncnc2[nH]c3cc(Cl)ccc3c12 [Compound 1, 3-((3R,4R)-3-((7-Chloro-9H-pyrimido[4,5-b]indol-4-yl)(methyl)amino)-4-methylpiperidin-1-yl)-3-oxopropanenitrile]
GSK-3β
  GSK-3β inhibition (in words): single-digit micromolar range

## CN(c1ncnc2[nH]c3cc(Cl)ccc3c12)C1CCCN(C(=O)CC#N)C1 (stereo not drawn) [Compound 14a, 3-(3-((7-Chloro-9H-pyrimido[4,5-b]indol-4-yl)(methyl)amino)piperidin-1-yl)-3-oxopropanenitrile]
GSK-3β
  IC50: 1.86 ± 0.113 µM

## CN(c1ncnc2[nH]c3cc(Cl)ccc3c12)C1CCCN(CCC(N)=O)C1 (stereo not drawn) [Compound 14c, 3-(3-((7-Chloro-9H-pyrimido[4,5-b]indol-4-yl)(methyl)amino)piperidin-1-yl)propanamide]
GSK-3β
  IC50: > 10 µM
  GSK-3β inhibition (in words): dramatic decrease in activity

## COC(=O)CCN1CCCC(N(C)c2ncnc3[nH]c4cc(Cl)ccc4c23)C1 (stereo not drawn) [Compound 14d, Methyl-3-(3-((7-chloro-9H-pyrimido[4,5-b]indol-4-yl)(methyl)amino)piperidin-1-yl)propanoate]
GSK-3β
  IC50: > 10 µM
  GSK-3β inhibition (in words): dramatic decrease in activity

## CCCN1CCCC(N(C)c2ncnc3[nH]c4cc(Cl)ccc4c23)C1 (stereo not drawn) [Compound 14e, 7-Chloro-N-methyl-N-(1-propylpiperidin-3-yl)-9H-pyrimido[4,5-b]indol-4-amine]
GSK-3β
  IC50: > 10 µM
  GSK-3β inhibition (in words): severe decrease in activity

## CC(C)N1CCCC(N(C)c2ncnc3[nH]c4cc(Cl)ccc4c23)C1 (stereo not drawn) [Compound 14f, 7-Chloro-N-(1-isopropylpiperidin-3-yl)-N-methyl-9H-pyrimido[4,5-b]indol-4-amine]
GSK-3β
  IC50: > 10 µM
  GSK-3β inhibition (in words): severe decrease in activity

## CN(c1ncnc2[nH]c3cc(Cl)ccc3c12)C1CCCN(C2CCCC2)C1 (stereo not drawn) [Compound 14g, 7-Chloro-N-(1-cyclopentylpiperidin-3-yl)-N-methyl-9H-pyrimido[4,5-b]indol-4-amine]
GSK-3β
  IC50: > 10 µM
  GSK-3β inhibition (in words): severe decrease in activity

## CN(c1ncnc2[nH]c3cc(Cl)ccc3c12)C1CCCN(Cc2ccco2)C1 (stereo not drawn) [Compound 14h, 7-Chloro-N-(1-(furan-2-ylmethyl)piperidin-3-yl)-N-methyl-9H-pyrimido[4,5-b]indol-4-amine]
GSK-3β
  IC50: > 10 µM

## CN(c1ncnc2[nH]c3cc(Cl)ccc3c12)C1CCCN(Cc2ccncc2)C1 (stereo not drawn) [Compound 14i, 7-Chloro-N-methyl-N-(1-(pyridin-4-ylmethyl)piperidin-3-yl)-9H-pyrimido[4,5-b]indol-4-amine]
GSK-3β
  IC50: > 10 µM

## CN(c1ncnc2[nH]c3cc(Cl)ccc3c12)C1CCCN(Cc2cccc(C#N)c2)C1 (stereo not drawn) [Compound 14j, 3-((3-((7-Chloro-9H-pyrimido[4,5-b]indol-4-yl)(methyl)amino)piperidin-1-yl)methyl)benzonitrile]
GSK-3β
  IC50: > 10 µM

## CN(c1ncnc2[nH]c3cc(Cl)ccc3c12)C1CCCN(CCC(F)(F)F)C1 (stereo not drawn) [Compound 14k, 7-Chloro-N-methyl-N-(1-(3,3,3-trifluoropropyl)piperidin-3-yl)-9H-pyrimido[4,5-b]indol-4-amine]
GSK-3β
  IC50: > 10 µM
  GSK-3β inhibition (in words): inactive

## CN(c1ncnc2[nH]c3cc(Cl)ccc3c12)C1CCCN(CC#N)C1 (stereo not drawn) [Compound 14l, 2-(3-((7-Chloro-9H-pyrimido[4,5-b]indol-4-yl)(methyl)amino)piperidin-1-yl)acetonitrile]
GSK-3β
  IC50: > 10 µM
  GSK-3β inhibition (in words): inactive

## CN(c1ncnc2[nH]c3cc(Cl)ccc3c12)C1CCCN(CC2CC2)C1 (stereo not drawn) [Compound 14m, 7-Chloro-N-(1-(cyclopropylmethyl)piperidin-3-yl)-N-methyl-9H-pyrimido[4,5-b]indol-4-amine]
GSK-3β
  IC50: > 10 µM
  GSK-3β inhibition (in words): severe decrease in activity

## CN(C)CCCN1CCCC(N(C)c2ncnc3[nH]c4cc(Cl)ccc4c23)C1 (stereo not drawn) [Compound 14n, 7-Chloro-N-(1-(3-(dimethylamino)propyl)piperidin-3-yl)-N-methyl-9H-pyrimido[4,5-b]indol-4-amine]
GSK-3β
  IC50: 3.56 ± 0.664 µM
  GSK-3β inhibition (in words): remarkably reduced GSK-3β inhibition

## CN(c1ncnc2c1c1ccc(Cl)cc1n2C)C1CCCN(CCC#N)C1 (stereo not drawn) [Compound 14o, 3-(3-((7-Chloro-9-methyl-9H-pyrimido[4,5-b]indol-4-yl)(methyl)amino)piperidin-1-yl)propanenitrile]
GSK-3β
  IC50: > 10 µM
  GSK-3β inhibition (in words): inactive

## CN(c1ncnc2[nH]c3cc(Cl)ccc3c12)C1CCN(CCC#N)C1 (stereo not drawn) [Compound 15, 3-(3-((7-Chloro-9H-pyrimido[4,5-b]indol-4-yl)(methyl)amino)pyrrolidin-1-yl)propanenitrile]
GSK-3β
  IC50: 7.02 ± 1.08 µM

## CN(c1ncnc2[nH]c3cc(Cl)ccc3c12)C1CCCN(CCC#N)CC1 (stereo not drawn) [Compound 16, 3-(4-((7-Chloro-9H-pyrimido[4,5-b]indol-4-yl)(methyl)amino)azepan-1-yl)propanenitrile]
GSK-3β
  IC50: 1.54 ± 0.284 µM

## CN(c1ncnc2[nH]c3cc(Cl)ccc3c12)C1CCN(CCC#N)CC1 [Compound 17, 3-(4-((7-Chloro-9H-pyrimido[4,5-b]indol-4-yl)(methyl)amino)piperidin-1-yl)propanenitrile]
GSK-3β
  IC50: 13.3 ± 4.39 µM
